What was measured:
barnyard grass [1] = assay: Test Example 3: herbicidal effect by foliage application, Wagner pot (Table 18, symbol H); format: in vivo, barnyard grass (Echinochloa crus-galli); settings: 320 g/ha
Procedure, shortened: (§1)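 Plants were sown in alluvial soil held under 0.1–0.5 cm standing water and grown 14 days in a greenhouse at 25–30 °C. An emulsifiable formulation, water-diluted to the set dose, was then sprayed onto the foliage, and effects were scored three weeks later using previously defined criteria.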

Chinese sprangletop = assay: Test Example 3: herbicidal effect by foliage application, Wagner pot (Table 18, symbol D); format: in vivo, chinese sprangletop (Leptochloa chinensis); settings: 320 g/ha
Procedure, shortened: as §1

rice flat sedge = assay: Test Example 3: herbicidal effect by foliage application, Wagner pot (Table 18, symbol E); format: in vivo, rice flat sedge (Cyperus iria); settings: 320 g/ha
Procedure, shortened: as §1

southern crabgrass [2] = assay: Test Example 4: herbicidal effect by soil treatment (Table 19, symbol F); format: in vivo, southern crabgrass (Digitaria ciliaris); settings: 320 g/ha
Procedure, shortened: (§2)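 Applied as a water-diluted emulsion, the compound was sprayed onto soil covering newly sown seeds. Evaluation came three weeks after application, in a greenhouse held at 25° C. to 30° C.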

green foxtail [3] = assay: Test Example 4: herbicidal effect by soil treatment (Table 19, symbol G); format: in vivo, green foxtail (Setaria viridis); settings: 320 g/ha
Procedure, shortened: as §2

barnyard grass [4] = assay: Test Example 4: herbicidal effect by soil treatment (Table 19, symbol H); format: in vivo, barnyard grass (Echinochloa crus-galli); settings: 320 g/ha
Procedure, shortened: as §2

wild oat [5] = assay: Test Example 4: herbicidal effect by soil treatment (Table 19, symbol I); format: in vivo, wild oat (Avena fatua); settings: 320 g/ha
Procedure, shortened: as §2

blackgrass [6] = assay: Test Example 4: herbicidal effect by soil treatment (Table 19, symbol J); format: in vivo, blackgrass (Alopecurus myosuroides); settings: 320 g/ha
Procedure, shortened: as §2

Italian ryegrass [7] = assay: Test Example 4: herbicidal effect by soil treatment (Table 19, symbol K); format: in vivo, Italian ryegrass (Lolium multiflorum); settings: 320 g/ha
Procedure, shortened: as §2

windgrass [8] = assay: Test Example 4: herbicidal effect by soil treatment (Table 19, symbol L); format: in vivo, windgrass (Apera spica-venti); settings: 320 g/ha
Procedure, shortened: as §2

velvetleaf [9] = assay: Test Example 4: herbicidal effect by soil treatment (Table 19, symbol M); format: in vivo, velvetleaf (Abutilon theophrasti); settings: 320 g/ha
Procedure, shortened: as §2

redroot pigweed = assay: Test Example 4: herbicidal effect by soil treatment (Table 19, symbol N); format: in vivo, redroot pigweed (Amaranthus retroflexus); settings: 320 g/ha
Procedure, shortened: as §2

lambsquarters [10] = assay: Test Example 4: herbicidal effect by soil treatment (Table 19, symbol O); format: in vivo, lambsquarters (Chenopodium album); settings: 320 g/ha
Procedure, shortened: as §2

chickweed = assay: Test Example 4: herbicidal effect by soil treatment (Table 19, symbol P); format: in vivo, common chickweed (Stellaria media); settings: 320 g/ha
Procedure, shortened: as §2

persian speedwell [11] = assay: Test Example 4: herbicidal effect by soil treatment (Table 19, symbol R); format: in vivo, Persian speedwell (Veronica persica); settings: 320 g/ha
Procedure, shortened: as §2

southern crabgrass [12] = assay: Test Example 5: herbicidal effect by foliage application, plastic box (Table 20, symbol F); format: in vivo, southern crabgrass (Digitaria ciliaris); settings: foliage application, 320 g/ha, 3 weeks after application
Procedure, shortened: (§3)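 Sow seeds spot-wise in sterilized diluvial soil; cover with ~1.5 cm soil. Grow 14 days in greenhouse, 25° C. to 30° C. Spray foliage with emulsion diluted to predetermined amount. Rate effect after 3 weeks.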

green foxtail [13] = assay: Test Example 5: herbicidal effect by foliage application, plastic box (Table 20, symbol G); format: in vivo, green foxtail (Setaria viridis); settings: foliage application, 320 g/ha, 3 weeks after application
Procedure, shortened: as §3

barnyard grass [14] = assay: Test Example 5: herbicidal effect by foliage application, plastic box (Table 20, symbol H); format: in vivo, barnyard grass (Echinochloa crus-galli); settings: foliage application, 320 g/ha, 3 weeks after application
Procedure, shortened: as §3

wild oat [15] = assay: Test Example 5: herbicidal effect by foliage application, plastic box (Table 20, symbol I); format: in vivo, wild oat (Avena fatua); settings: foliage application, 320 g/ha, 3 weeks after application
Procedure, shortened: as §3

blackgrass [16] = assay: Test Example 5: herbicidal effect by foliage application, plastic box (Table 20, symbol J); format: in vivo, blackgrass (Alopecurus myosuroides); settings: foliage application, 320 g/ha, 3 weeks after application
Procedure, shortened: as §3

Italian ryegrass [17] = assay: Test Example 5: herbicidal effect by foliage application, plastic box (Table 20, symbol K); format: in vivo, Italian ryegrass (Lolium multiflorum); settings: foliage application, 320 g/ha, 3 weeks after application
Procedure, shortened: as §3

windgrass [18] = assay: Test Example 5: herbicidal effect by foliage application, plastic box (Table 20, symbol L); format: in vivo, windgrass (Apera spica-venti); settings: foliage application, 320 g/ha, 3 weeks after application
Procedure, shortened: as §3

velvetleaf [19] = assay: Test Example 5: herbicidal effect by foliage application, plastic box (Table 20, symbol M); format: in vivo, velvetleaf (Abutilon theophrasti); settings: foliage application, 320 g/ha, 3 weeks after application
Procedure, shortened: as §3

lambsquarters [20] = assay: Test Example 5: herbicidal effect by foliage application, plastic box (Table 20, symbol O); format: in vivo, lambsquarters (Chenopodium album); settings: foliage application, 320 g/ha, 3 weeks after application
Procedure, shortened: as §3

persian speedwell [21] = assay: Test Example 5: herbicidal effect by foliage application, plastic box (Table 20, symbol R); format: in vivo, Persian speedwell (Veronica persica); settings: foliage application, 320 g/ha, 3 weeks after application
Procedure, shortened: as §3

## Cc1nn(C)c(=O)c(-c2c(-c3ccc(F)cc3)sc3ccc(F)cc23)c1OS(=O)(=O)N(C)C [2-009]
Barnyard grass [1]
  herbicidal effect on H (barnyard grass), rating 0-5: 5 (Herbicidal rate of 90% or more (almost completely withered))
Chinese sprangletop
  herbicidal effect on D (Chinese sprangletop), rating 0-5: 3 (Herbicidal rate of 40% or more and less than 70%)
Rice flat sedge
  herbicidal effect on E (rice flat sedge), rating 0-5: 4 (Herbicidal rate of 70% or more and less than 90%)
Southern crabgrass [2]
  herbicidal effect rating, F: southern crabgrass: 1 (Herbicidal rate of 5% or more and less than 20%)
Green foxtail [3]
  herbicidal effect rating, G: green foxtail: 3 (Herbicidal rate of 40% or more and less than 70%)
Barnyard grass [4]
  herbicidal effect rating, H: barnyard grass: 0 (Herbicidal rate of 5% or less (almost no effect))
Wild oat [5]
  herbicidal effect rating, I: wild oat: 0 (Herbicidal rate of 5% or less (almost no effect))
Blackgrass [6]
  herbicidal effect rating, J: blackgrass: 0 (Herbicidal rate of 5% or less (almost no effect))
Italian ryegrass [7]
  herbicidal effect rating, K: Italian ryegrass: 4 (Herbicidal rate of 70% or more and less than 90%)
Windgrass [8]
  herbicidal effect rating, L: windgrass: 0 (Herbicidal rate of 5% or less (almost no effect))
Velvetleaf [9]
  herbicidal effect rating, M: velvetleaf: 2 (Herbicidal rate of 20% or more and less than 40%)
Redroot pigweed
  herbicidal effect rating, N: redroot pigweed: 5 (Herbicidal rate of 90% or more (almost completely withered))
Lambsquarters [10]
  herbicidal effect rating, O: lambsquarters: 3 (Herbicidal rate of 40% or more and less than 70%)
chickweed
  herbicidal effect rating, P: chickweed: 4 (Herbicidal rate of 70% or more and less than 90%)
Persian speedwell [11]
  herbicidal effect rating, R: persian speedwell: 3 (Herbicidal rate of 40% or more and less than 70%)
Southern crabgrass [12]
  effect on southern crabgrass (F): 5 (Herbicidal rate of 90% or more (almost completely withered))
Green foxtail [13]
  effect on green foxtail (G): 5 (Herbicidal rate of 90% or more (almost completely withered))
Barnyard grass [14]
  effect on barnyard grass (H): 4 (Herbicidal rate of 70% or more and less than 90%)
Wild oat [15]
  effect on wild oat (I): 0 (Herbicidal rate of 5% or less (almost no effect))
Blackgrass [16]
  effect on blackgrass (J): 0 (Herbicidal rate of 5% or less (almost no effect))
Italian ryegrass [17]
  effect on Italian ryegrass (K): 4 (Herbicidal rate of 70% or more and less than 90%)
Windgrass [18]
  effect on windgrass (L): 0 (Herbicidal rate of 5% or less (almost no effect))
Velvetleaf [19]
  effect on velvetleaf (M): 4 (Herbicidal rate of 70% or more and less than 90%)
Lambsquarters [20]
  effect on lambsquarters (O): 3 (Herbicidal rate of 40% or more and less than 70%)
Persian speedwell [21]
  effect on persian speedwell (R): 5 (Herbicidal rate of 90% or more (almost completely withered))

— US20230085307A1, “PYRIDAZINONE COMPOUND AND HERBICIDE” (NISSAN CHEMICAL CORPORATION, priority 2019, published 2023)
